In article PMC5537225, “Therapeutic efficacy of a respiratory syncytial virus fusion inhibitor” (Nature Communications, 2017):
Where two headings read alike, the source gives them in different places.

Key:
[1] = biological target: prefusion-stabilized RSV F protein (DS-Cav1) (respiratory syncytial virus strain A2); test: crystal structure
rgRSV224 = test: microbe, parasite or virus in culture; assay type: cell-based, respiratory syncytial virus; conditions: human respiratory syncytial virus, HeLa
[2] = tested on: rgRSV224 L141W mutant strain; assay type: cell-based, respiratory syncytial virus; conditions: mutant selected with JNJ-53718678
[3] = tested on: rgRSV224 D489Y mutant strain; assay type: cell-based, respiratory syncytial virus; conditions: mutant selected with JNJ-53718678

Compound	stoichiometry N [1]	EC50 (rgRSV224; mock-treated rgRSV224 during in vitro selection procedure, read-out: EC50 wild-type strain (untreated control)) [nM]	EC50 (rgRSV224; read-out: EC50 parent strain (rgRSV224)) [nM]	FC (fold change over wild-type strain) mutant strain L141W [2]	FC (fold change over wild-type strain) mutant strain D489Y [3]
prefusion-stabilized RSV F protein (DS-Cav1) (domain or fragment)	3	–	–	–	–
Cc1cn2nc([C@@H]3CCCCN3C(=O)c3cc(Cl)ccc3NS(C)(=O)=O)cc2nc1N1CC[C@H](N)C1 [GS-5806, reference compound]	–	0.1	0.1	379	> 50,000
